According to PubChem BioAssay (NCI):
“And” between values parts separate entries of the source, which are not always exact repeats. Equal entries are not always repeated.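 Briefly, cells in 96-well plates were exposed to five compound concentrations for 48 h, and endpoints were estimated by linear interpolation. GI50 is the concentration that inhibits growth by half. TGI marks complete inhibition of growth.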

Legend:
Assay in all cases: NCI-60 cell line screen, 48 h
[1] = tested on: A498 renal
[2] = tested on: EKVX NSCLC
[3] = tested on: HCT-116 colon
[4] = tested on: KM12 colon
[5] = tested on: M14 melanoma
[6] = tested on: RXF 393 renal
[7] = tested on: SNB-75 CNS
[8] = tested on: UO-31 renal
[9] = tested on: MCF7 breast
[10] = tested on: BT-549 breast

SMILES | TGI [1] | TGI [2] | TGI [3] | TGI [4] | TGI [5] | TGI [6] | TGI [7] | TGI [8] | GI50 [1] | GI50 [3] | GI50 [4] | GI50 [5] | GI50 [9] | TGI [9] | GI50 [6] | GI50 [7] | GI50 [2] | GI50 [8] | TGI [10] | GI50 [10]
Cc1ccccc1NC(=O)C(=O)C(C(=O)c1ccccc1F)C1OC(=O)c2ccccc21 (stereo unspecified) | > 100 µM | > 100 µM | 29.1 µM | 68.2 µM | 30.3 µM | 24.6 µM | 31.8 µM | 49.4 µM | – | – | – | – | – | – | – | – | – | – | – | –
C=C1C(C)C2C(Cc3ccccc3)NC(=O)C23C(OC(C)=O)C=CC(C)(O)C(=O)C(C)C/C=C/C3C1O (stereo unspecified) | 1.47 µM and 13.9 µM | > 95.5 µM and 30 µM | > 500 µM | > 500 µM | – | 1.55 µM and 1.04 µM | – | 1.62 µM and 14.3 µM | 0.202 µM and 0.05 µM | 1.04 µM | 163 µM | 3.18 µM | 8.87 µM | 87 µM and 275 µM | 0.0604 µM | 0.0218 µM and 0.05 µM | – | – | – | –
N#Cc1c(N)oc2cc3c(C#N)c(N)oc3cc12 | – | > 100 µM | – | > 100 µM | > 100 µM | > 100 µM | > 100 µM | > 100 µM | – | – | – | – | – | – | – | – | – | – | – | –
O=C1N(c2ccc(Cl)cc2)C(=O)C2(SC=NN2Cc2ccccc2)N1c1ccc(Cl)cc1 (stereo unspecified) | > 100 µM | > 100 µM | > 100 µM | > 100 µM | > 100 µM | > 100 µM | > 100 µM | > 100 µM | – | – | – | – | – | – | – | – | – | – | – | –
CC(C)(C)n1cc(-c2ccnc(NCCCNS(=O)(=O)c3cccc4ccccc34)c2)c(-c2cccc(O)c2)n1 | 5.1 µM | 6.32 µM | 2.89 µM | 5.42 µM | 3.21 µM | 3.06 µM | 5.48 µM | 7.97 µM | 1.37 µM | 1.4 µM | 2.34 µM | 1.68 µM | 1.91 µM | 4.06 µM | 1.52 µM | 1.88 µM | 2.13 µM | 2.26 µM | – | –
CC(=O)OC1(C(C)=O)CC2(c3ccccc3)OC1(c1ccccc1)c1ccccc12 (stereo unspecified) | – | > 100 µM | > 100 µM | > 100 µM | > 100 µM | 60.2 µM | > 100 µM | 80.1 µM | – | – | – | – | – | – | – | – | – | – | – | –
N#Cc1sc2nc3c(c(-c4ccccc4)c2c1N)CCCC3 | > 100 µM | – | > 100 µM | > 100 µM | – | > 100 µM | – | > 100 µM | – | – | – | – | – | – | – | – | – | – | – | –
COc1cccc(NC(=O)/C(CS(=O)(=O)CCC(C(C)=O)C(C)=O)=N\NC(C)(C)C)c1 | > 100 µM | > 100 µM | > 100 µM | > 100 µM | > 100 µM | > 100 µM | > 100 µM | > 100 µM | – | – | – | – | – | – | – | – | – | – | – | –
COc1cc2c(cc1O)CCN[C@@]21CS[C@H]2c3c(OC(C)=O)c(C)c4c(c3C(COC1=O)N1C2C2NC(Cc3cc(C)c(OC)c(O)c32)[C@@H]1O)OCO4 (stereo partly specified) | < 10 nM and 6.8e-07 µg/mL and 0.0045 µg/mL | < 10 nM and 1.3e-05 µg/mL | 11.9 µM and 4.86 µg/mL | 11.3 µM | < 10 nM and 1.8e-07 µg/mL and 0.0045 µg/mL | < 10 nM and 1.9e-07 µg/mL and 0.0045 µg/mL | – | 21.3 nM and 0.255 µg/mL | – | 4.5 ng/mL | – | 4.5 ng/mL | – | 10.5 µM | 4.5 ng/mL | 4.5 ng/mL | 0.000588 ng/mL | 10.8 ng/mL | – | –
COc1cc([C@H]2OC[C@@H]3C(c4cc(OC)c5c(c4)OCO5)OC[C@H]23)cc(OC)c1OC (stereo partly specified) | > 100 µM | > 100 µM | > 100 µM | > 100 µM | > 100 µM | – | > 100 µM | > 100 µM | – | – | – | – | – | > 100 µM | – | – | – | – | > 100 µM | –
COc1ccccc1NC(=O)c1sc2ncn(CCOc3ccccc3)c(=O)c2c1C | – | > 50 µM | > 50 µM | > 50 µM | > 50 µM | – | – | > 50 µM | – | 1.99 µM | 1.43 µM | 3.54 µM | 3.55 µM | > 50 µM | – | – | 5.08 µM | 12.5 µM | > 50 µM | 26.7 µM
CCCCCCNC(=O)CCN(C(=O)O)S(=O)(=O)c1ccc(NC(=O)c2ccccc2)cc1 | > 100 µM | > 100 µM | > 59.5 µM | > 100 µM | > 100 µM | > 100 µM | > 100 µM | > 100 µM | – | – | – | – | – | – | – | – | – | – | – | –
CC(=O)[CH-]C(=O)c1ccccc1.CC(=O)[CH-]C(=O)c1ccccc1.Cl.[O-]CCc1ccccn1.[O-]CCc1ccccn1.[Ti+4] | 75.1 µM | 78.2 µM | 55.6 µM | > 100 µM | 70.5 µM | – | 89.2 µM | 47.4 µM | 28.8 µM | 18.9 µM | 41.4 µM | 22 µM | – | – | – | 23.9 µM | 28.9 µM | 17.4 µM | – | –
Nc1ncc(CN2CCCC2)c(-c2ccccc2O)n1 | > 750 µM | – | > 750 µM | > 750 µM | > 750 µM | > 750 µM | > 750 µM | > 750 µM | – | – | – | – | – | – | – | – | – | – | – | –
C=C(C)[C@@H]1CC[C@]2(C(=O)O)CC[C@]3(C)[C@H](CC[C@@H]4[C@@]5(C)CCC(N)C(C)(C)[C@@H]5CC[C@]43C)[C@@H]12 (stereo partly specified) | – | – | – | – | – | 3.31 µM | 2.72 µM | – | – | – | – | – | – | – | 1.77 µM | 1.39 µM | – | – | – | –
CCCCCCCCCC(=O)Oc1ccc(/C(=C(/C)c2ccccc2)c2ccc(OCCN3CCCC3)cc2)cc1 | – | 13.6 µM | 15.7 µM | 16.7 µM | – | 14.1 µM | 13.5 µM | 14.2 µM | – | 8.01 µM | 8.78 µM | – | 0.005 µM | 10.3 µM | 6.95 µM | 6.56 µM | 6.92 µM | 6.72 µM | 16.8 µM | 8.22 µM
NN=C1/C(=C\c2ccccc2)CCC/C1=C/c1ccccc1 | 95.8 µM | 89.1 µM | > 100 µM | > 100 µM | > 100 µM | > 100 µM | > 100 µM | 94.2 µM | – | – | – | – | – | – | – | – | – | – | – | –
NC1(C(=O)O)CCC(C(=O)O)CC1 (stereo unspecified) | > 100 µM | > 100 µM | > 100 µM | > 100 µM | > 100 µM | > 100 µM | > 100 µM | > 100 µM | – | – | – | – | – | – | – | – | – | – | – | –
CC1(C)C2CC(=O)C1(C)C(OCc1ccccc1)C2Br (stereo unspecified) | 62.2 µM and > 100 µM | > 100 µM | 39.8 µM and > 100 µM | > 100 µM | 57.9 µM and > 100 µM | 46.8 µM and > 100 µM | – | 75.1 µM and > 100 µM | 24.8 µM and > 100 µM | – | 31.4 µM and 63 µM | 23.4 µM and 54.8 µM | – | > 100 µM | 20.6 µM and 82.7 µM | – | – | 29.5 µM and 62 µM | 67.4 µM and > 100 µM | 26.6 µM and 54.3 µM
